According to patent publication US12209072B2, “Cyclopentyl acids as LPA antagonists” (BRISTOL-MYERS SQUIBB COMPANY, priority 2018, dated 2025):

Molecular target: T1, human LPA1 (Homo sapiens, UniProt Q92633)
T1 construct: expressed in transfected cells; host or cells: Chinese hamster ovary (CHO) cells
Experiment: LPA1 functional antagonist assay (LPA-induced calcium flux)
Format: cell-based
Settings: CHO cells overexpressing human LPA1; inhibition of calcium flux induced by 10 nM LPA; read-out: hLPA1 IC50
Method: The effectiveness of compounds of the present invention as LPA1 inhibitors can be determined in an LPA1 functional antagonist assay as follows:
Chinese hamster ovary cells overexpressing human LPA1 were plated overnight (15,000 cells/well) in poly-D-lysine coated 384-well microplates (Greiner bio-one, Cat #781946) in DMEM/F12 medium (Gibco, Cat #11039). Following overnight culture, cells were loaded with calcium indicator dye (AAT Bioquest Inc, Cat #34601) for 30 minutes at 37° C. The cells were then equilibrated to room temperature for 30 minutes before the assay. Test compounds solubilized in DMSO were transferred to 384 well non-binding surface plates (Corning, Cat #3575) using the Labcyte Echo acoustic dispense and diluted with assay buffer [1×HBSS with calcium/magnesium (Gibco Cat #14025-092), 20 mM HEPES (Gibco Cat #15630-080) and 0.1% fatty acid free BSA (Sigma Cat #A9205)] to a final concentration of 0.5% DMSO. Diluted compounds were added to the cells by FDSS6000 (Hamamatsu) at final concentrations ranging from 0.08 nM to 5 μM. and were then incubated for 20 min at room temperature at which time LPA (Avanti Polar Lipids Cat #857130C) was added at final concentrations of 10 nM to stimulate the cells. The compound IC50 value was defined as the concentration of test compound which inhibited 50% of the calcium flux induced by LPA alone. IC50 values were determined by fitting data to a 4-parameter logistic equation (GraphPad Prism, San Diego CA).

T1 sequence (Q92633 whole entry): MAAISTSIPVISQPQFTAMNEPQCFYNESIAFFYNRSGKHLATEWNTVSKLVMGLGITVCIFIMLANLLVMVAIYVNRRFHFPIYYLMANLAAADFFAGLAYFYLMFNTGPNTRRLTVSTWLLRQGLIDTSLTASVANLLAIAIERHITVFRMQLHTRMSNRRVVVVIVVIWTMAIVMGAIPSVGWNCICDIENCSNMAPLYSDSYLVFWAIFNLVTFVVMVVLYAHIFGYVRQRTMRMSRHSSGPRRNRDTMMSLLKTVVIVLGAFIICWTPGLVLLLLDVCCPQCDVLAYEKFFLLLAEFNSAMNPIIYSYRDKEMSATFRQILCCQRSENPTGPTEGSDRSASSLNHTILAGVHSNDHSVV

Structure (SMILES) | IC50 [nM]
CCCC1(COC(=O)NCc2c(-c3ccc(O[C@@H]4CC[C@@H](CC(=O)O)C4)c(C)n3)nnn2C)CC1 (racemic) [Example 9, (±)-Trans-2-(3-((2-methyl-6-(1-methyl-5-(((((1-propylcyclopropyl)methoxy)carbonyl)amino)methyl)-1H-1,2,3-triazol-4-yl)pyridin-3-yl)oxy)cyclopentyl)acetic Acid] | 111
Cc1nc(-c2onc(C)c2COC(=O)N(C)C2CCCC2)ccc1O[C@H]1CC[C@H](C(C)C(=O)O)C1 (mixture of isomers) [Example 50, (±)-trans-2-[3-({6-[4-({[cyclopentyl(methyl)carbamoyl]oxy}methyl)-3-methyl-1,2-oxazol-5-yl]-2-methyl-pyridin-3-yl}oxy)cyclopentyl]propanoic acid] | 20
Cc1nc(-c2nnn(C)c2CNc2nccc(-c3ccccn3)n2)ccc1OC[C@@H]1CC[C@H](C(=O)O)C1 (relative stereo) [Example 36, cis-3-(((2-methyl-6-(1-methyl-5-(((4-(pyridin-2-yl)pyrimidin-2-yl)amino)methyl)-1H-1,2,3-triazol-4-yl)pyridin-3-yl)oxy)methyl)cyclopentane-1-carboxylic acid] | 119
Cc1nc(-c2nnn(C)c2COC(=O)N(C)CC(C)C)ccc1O[C@H]1CC[C@H](CC(=O)O)C1 (racemic) [Example 55, (±)-trans-2-[3-({2-methyl-6-[1-methyl-5-({[methyl(2-methylpropyl)carbamoyl]oxy}methyl)-1H-1,2,3-triazol-4-yl]pyridin-3-yl}oxy)cyclo-pentyl]acetic acid] | 135
Cc1noc(-c2ccc(O[C@H]3CC[C@@H](C(=O)O)C3)cc2)c1NC(=O)O[C@H](C)c1ccccc1 (single isomer, unassigned) [Example 1] | 104
Cc1noc(-c2ccc(OC3CCC(C(=O)O)C3)cn2)c1CNc1nccc(-c2ccccc2)n1 (single isomer, unassigned) [Example 45] | 17
Cc1nc(-c2onc(C)c2COC(=O)N(C)C2CCCC2)ccc1O[C@@H]1CC[C@@H](CC(=O)O)C1 (racemic) [Example 8, (±)-Trans-2-(3-((6-(4-(((cyclopentyl(methyl)carbamoyl)oxy)methyl)-3-methylisoxazol-5-yl)-2-methylpyridin-3-yl)oxy)cyclopentyl)acetic Acid] | 13
Cc1nc(-c2nnn(C)c2COC(=O)N(C)CC2CCCC2)cnc1O[C@@H]1CC[C@@H](C(=O)O)C1 (racemic) [Example 14, (±)-trans-3-((5-(5-((((cyclo-pentylmethyl)(methyl)carbamoyl)oxy)methyl)-1-methyl-1H-1,2,3-triazol-4-yl)-3-methylpyrazin-2-yl)oxy) cyclopentanecarboxylic Acid] | 184
Cc1noc(-c2ccc(O[C@@H]3CC[C@@H](C(=O)O)C3)cn2)c1CNc1nccc(-c2ccccn2)n1 (relative stereo) [Example 34, trans-3-((6-(3-methyl-4-(((4-(pyridin-2-yl)pyrimidin-2-yl)amino)methyl)isoxazol-5-yl)pyridin-3-yl)oxy)cyclo-pentane-1-carboxylic acid] | 247
CC(C)CCN(C)C(=O)OCc1c(-c2ccc(O[C@H]3CC[C@@H](C(=O)O)C3)cc2)nnn1C (relative stereo) [Example 12, Cis-3-(4-(5-(((isopentyl(methyl)carbamoyl)oxy)methyl)-1-methyl-1H-1,2,3-triazol-4-yl)phenoxy)cyclo-pentane-1-carboxylic acid] | 448
Cc1nc(-c2nnn(C)c2CNc2nccc(C(C)C)n2)ccc1OC[C@@H]1CC[C@H](C(=O)O)C1 (relative stereo) [Example 39, cis-3-(((6-(5-(((4-isopropylpyrimidin-2-yl)amino)methyl)-1-methyl-1H-1,2,3-triazol-4-yl)-2-methylpyridin-3-yl)oxy)methyl)cyclopentane-1-carboxylic acid] | 164
Cc1nc(-c2nnn(C)c2COC(=O)N(C)CC2CCC2)cnc1O[C@H]1CC[C@H](CC(=O)O)C1 (racemic) [Example 26, (±)-2-(Trans-3-((5-(5-((((cyclobutylmethyl)(methyl)carbamoyl)oxy)methyl)-1-methyl-1H-1,2,3-triazol-4-yl)-3-methylpyrazin-2-yl)oxy)cyclopentyl)acetic Acid] | 371
Cc1nc(-c2onc(C)c2COC(=O)N(C)C2CCCC2)ccc1O[C@H]1CC[C@H](C(C)(C)C(=O)O)C1 (racemic) [Example 52, (±)-trans-2-[3-({6-[4-({[cyclopentyl(methyl)carbamoyl]oxy}methyl)-3-methyl-1,2-oxazol-5-yl]-2-methyl-pyridin-3-yl}oxy)cyclopentyl]-2-methylpropanoic acid] | 8
Cc1noc(-c2ccc(OC3CCC(C(=O)O)C3)cn2)c1CNc1nccc(-c2ccccc2)n1 (stereo not shown) [Example 42, 3-((6-(3-methyl-4-(((4-phenylpyrimidin-2-yl)amino)methyl)isoxazol-5-yl)pyridin-3-yl)oxy)cyclopentane-1-carboxylic Acid] | 26
CN(CC1CCC1)C(=O)OCc1c(-c2ccc(O[C@@H]3CC[C@@H](C(=O)O)C3)cn2)nnn1C (racemic) [Example 25, (±)-trans-3-((6-(5-((((cyclobutyl-methyl)(methyl)carbamoyl)oxy)methyl)-1-methyl-1H-1,2,3-triazol-4-yl)pyridin-3-yl)oxy)cyclopentane carboxylic acid] | 354
Cc1nc(-c2nnn(C)c2COC(=O)N(C)C2CCCC2)ccc1O[C@H]1CC[C@H](CC(=O)O)C1 (racemic) [Example 56, (±)-trans-2-[3-({6-[5-({[cyclopentyl(methyl)carbamoyl]oxy}methyl)-1-methyl-1H-1,2,3-triazol-4-yl]-2-methylpyridin-3-yl}oxy)cyclopentyl]acetic acid] | 89
Cc1noc(-c2ccc(O[C@@H]3CC[C@@H](CC(=O)O)C3)cn2)c1CNc1nccc(-c2ccccn2)n1 (racemic) [Example 29, (±)2-(Trans-3-((6-(3-methyl-4-(((4-(pyridin-2-yl)pyrimidin-2-yl)amino)methyl)isoxazol-5-yl)pyridin-3-yl)oxy)cyclopentyl)acetic Acid] | 54

The remaining lines, values ahead:

IC50 [nM] | Structure (SMILES)
29 | Cc1nc(-c2onc(C)c2COC(=O)N(C)C2CCCC2)ccc1O[C@H]1CCC[C@H]1CC(=O)O (racemic) [Example 85, (±)-Cis-2-(2-((6-(4-(((cyclopentyl(methyl)carbamoyl)oxy)methyl)-3-methylisoxazol-5-yl)-2-methylpyridin-3-yl)oxy)cyclopentyl)acetic Acid]
295 | Cc1nc(-c2nnn(C)c2COC(=O)N(C)C2(C)CC2)ccc1O[C@H]1CC[C@H](CC(=O)O)C1 (racemic) [Example 57, (±)-trans-2-[3-({2-methyl-6-[1-methyl-5-({[methyl(1-methylcyclo-propyl)carbamoyl]oxy}methyl)-1H-1,2,3-triazol-4-yl]pyridin-3-yl}oxy)cyclopentyl]acetic acid]
425 | CCCN(C)C(=O)OCc1c(-c2ccc(O[C@H]3CCC[C@H]3CC(=O)O)c(C)n2)nnn1C (racemic) [Example 88, (±)-cis-2-(2-((2-methyl-6-(1-methyl-5-(((methyl(propyl)carbamoyl)oxy)methyl)-1H-1,2,3-triazol-4-yl)pyridin-3-yl)oxy)cyclopentyl)acetic acid]
1230 | Cc1nc(-c2nnn(C)c2NC(=O)OCC2CC2)ccc1O[C@H]1CC[C@H](CC(=O)O)C1 (racemic) [Example 83, (±)-trans-2-[3-{[6-(5-{(cyclopropylmethoxy)carbonyl]amino}-1-methyl-1H-1,2,3-triazol-4-yl)-2-methyl-pyridin-3-yl]oxy}cyclopentyl]acetic acid]
291 | Cc1nc(-c2nnn(C)c2COC(=O)N(C)CC2CC2)ccc1O[C@H]1CCC[C@H]1CC(=O)O (racemic) [Example 89, (±)-cis-2-(2-((6-(5-((((cyclopropyl-methyl)(methyl)carbamoyl)oxy)methyl)-1-methyl-1H-1,2,3-triazol-4-yl)-2-methylpyridin-3-yl)oxy)cyclopentyl)acetic acid]
101 | Cc1nc(-c2nnn(C)c2COC(=O)N(C)CC2CCC2)ccc1O[C@H]1CC[C@@H](C(=O)O)C1 (racemic) [Example 74, (±)-cis-3-({6-[5-({[cyclobutylmethyl)(methyl)carbamoyl]oxy}methyl)-1-methyl-1H-1,2,3-triazol-4-yl]-2-methylpyridin-3-yl}oxy)cyclopentane-1-carboxylic acid]
1180 | Cc1noc(-c2ccc(O[C@H]3CC[C@@H](C(=O)O)C3)cc2)c1COC(=O)N(C)CCC(C)C (racemic) [Example 73, (±)-cis-3-{4-[3-methyl-4-({[methyl(3-methylbutyl)carbamoyl]oxy}methyl)-1,2-oxazol-5-yl]phenoxy}cyclo-pentane-1-carboxylic acid]
264 | CCC1(COC(=O)NCc2c(-c3ccc(O[C@H]4CC[C@H](CC(=O)O)C4)c(C)n3)nnn2C)CC1 (racemic) [Example 60, (±)-trans-2-[3-[(6-{5-[({[(1-ethyl-cyclopropyl)methoxy]carbonyl}amino)methyl]-1-methyl-1H-1,2,3-triazol-4-yl}-2-methylpyridin-3-yl)oxy]cyclopentyl]acetic acid]
